# Results as given in patent US9173875B2, “Treatment for nicotine-induced lung disease using peroxisome proliferator-activated receptor gamma agonists” (Los Angeles Biomedical Research Institute at Harbor-UCLA …, priority 2006, dated 2015).
# Where two headings read alike, the source gives them in different places.
# Assays:
# WI38 cells [1] = assay: Triglyceride uptake assay ([3H]triolein) in WI38 cells; format: cell-based, human
# Experimental: The human embryonic cell line WI38 was obtained from American Type Culture Collection (Rockville, Md.). Cells were grown in MEM plus 10% FBS at 37° C. in six-well plates, four-well slides, and 60- and 100-mm culture dishes as needed.
# The method used to quantitate triglyceride uptake by fetal rat lung fibroblasts has been described previously (Torday et al. (1995) Biochim Biophys Acta 1254: 198-206). Briefly, culture medium was replaced with DMEM containing 20% adult rat serum mixed with [3H]triolein (5 μCi/ml). The cells were incubated at 37° C. in 5% CO2+balance air for 4 h. At the termination of the incubation, the medium was decanted, the cells were rinsed twice with 1 ml of ice-cold MEM, and the cells were removed from the culture plate after a 5- to 10-min incubation with 2 ml of a 0.05% trypsin solution. An aliquot of the cell suspension was taken for protein assay (Bradford (1976) Anal Biochem 72: 248-254), and the remaining cell suspension was extracted for neutral lipid content.
# PTHrP receptor = biological target: T1, PTHrP receptor (Homo sapiens, UniProt Q03431); assay: PTHrP receptor binding assay
# T1 construct: 10-12 μg membrane protein; endogenous in cells; host or cells: WI38 human embryonic lung fibroblasts (inferred; the assay text only says membrane protein)
# T1 sequence (Q03431 27-593): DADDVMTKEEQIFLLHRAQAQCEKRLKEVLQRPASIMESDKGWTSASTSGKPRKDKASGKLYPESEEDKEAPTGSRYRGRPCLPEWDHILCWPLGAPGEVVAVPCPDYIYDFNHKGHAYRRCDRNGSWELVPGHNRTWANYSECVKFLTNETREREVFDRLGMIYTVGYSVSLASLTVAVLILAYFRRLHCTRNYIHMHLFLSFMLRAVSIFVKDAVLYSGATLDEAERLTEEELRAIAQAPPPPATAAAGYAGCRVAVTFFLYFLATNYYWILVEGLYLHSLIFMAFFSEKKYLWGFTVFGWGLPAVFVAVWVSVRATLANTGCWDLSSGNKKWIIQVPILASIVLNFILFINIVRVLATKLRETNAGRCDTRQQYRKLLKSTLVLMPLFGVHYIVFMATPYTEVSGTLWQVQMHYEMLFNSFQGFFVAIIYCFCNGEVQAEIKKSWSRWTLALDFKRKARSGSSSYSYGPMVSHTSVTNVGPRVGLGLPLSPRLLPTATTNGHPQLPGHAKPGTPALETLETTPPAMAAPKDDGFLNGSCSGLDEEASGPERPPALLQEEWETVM
# Experimental: The receptor binding assay was carried out as previously described (Torday and Rehan (2002) Am. J. Physiol. Lung Cell Mol. Physiol. 283: L130-L135; Torday and Rehan (2003) Cell Biochem Biophys 37: 235-246). The assay mixture, in a total volume of 0.1 ml, contained 50 mM Tris.HCl (pH 7.4), 2 mM dithiothreitol, 10 mM EDTA, 10 μg/ml each of protease inhibitors (leupeptin, pepstatin, antipain, and aprotinin), 0.5 mM phenylmethylsulfonyl fluoride, 10 mg/ml BSA, 5 mM MgCl2, […] [1251]-Tyr34-PTHrP-(1-34) (specific activity 1,064 Ci/mmol), 10-12 μg membrane protein, and 1×10-10 to 1×10^−6 M PTHrP-(1-34). Triplicate samples were incubated for 30 min at 30° C. Reactions were stopped by the addition of 0.1 ml of homogenization buffer containing 20 mg/ml of BSA and placed in ice-cold water for 30 min, followed by centrifugation at 15,000 g for 1 min. The supernatant was aspirated, and the pellet was counted for radioactive content with a gamma counter (model 1470; Wallace, Gaithersburg, Md.). Nonspecific binding was determined in the presence of 1 μM nonradioactive PTHrP-(1-34). Specific binding of [^125I]-Tyr34-PTHrP-(1-34) was calculated as total binding minus nonspecific binding and expressed as femtomoles per milligrams of protein. […] The effect of nicotine (1×10^−6 M) on PTHrP receptor binding was examined without and with the nACh receptor antagonists D-tubocurarine, α-bungarotoxin, or mecamylamine (1×10^−9 to 1×10^−6 M).
# ATII cells [2] = assay: Western analysis of CCT-α and SP-B in ATII cells treated in vitro; format: cell-based, rat
# Experimental: Protein extraction and Western blot analysis for SP-B and choline phosphate cytidylyltransferase-α (CCT-α) were performed using standard methods. […] Equal amounts of the protein from the supernatant were dissolved in electrophoresis sample buffer and subjected to SDS-polyacrylamide (4-12% gradient) gel electrophoresis followed by electrophoretic transfer to a nitrocellulose membrane. The membrane was blocked with 5% milk in 1× Tris-buffered saline containing 0.1% Tween 20 for 1 h and then incubated with rabbit anti-human SP-B polyclonal antibody (1:1,000 dilution; Chemicon) overnight at 4° C. The antibody for CCT-α (1:2,000 dilution) was a kind gift from Dr. Mallampalli (University of Iowa, Iowa City, Iowa). Subsequently, the membrane was washed with 1× Tris-buffered saline+0.1% Tween 20 and incubated with a 1:3,000 dilution of anti-rabbit horseradish peroxidase-linked whole antibody immunoglobulin G (Amersham, Arlington Heights, Ill.) for 1 h at room temperature, washed again, and developed with a chemiluminescent substrate (ECL, Amersham) following the manufacturer's protocol. The density of the SP-B and CCT-α bands was quantified using a scanning densitometer (Eagle Eye, Stratagene).
# ATII cells [3] = assay: Phospholipid synthesis ([3H]choline incorporation into saturated phosphatidylcholine) by ATII cells after in utero nicotine; format: in vivo, Sprague-Dawley rat
# Experimental: (§1) Incorporation of [methyl-3H]choline chloride (NEN Dupont) into saturated phosphatidylcholine was determined in monolayers of cultured explants and ATII cells. […] After incubation, explants and cells were washed three times with ice-cold PBS. The explants and the scraped cells were thoroughly homogenized, and the cellular lipids were extracted with chloroform-methanol (2:1) (Bligh and Dyer (1959) Can. J. Biochem. Physiol., 37: 911-917). The organic phase was dried under a stream of nitrogen at 60° C., resuspended in 0.5 ml of carbon tetrachloride containing 3.5 mg of osmium tetroxide, and left at room temperature for 15 min. The reaction mixture was redried under nitrogen and resuspended in 70 μl of chloroform-methanol (9:1, vol/vol). The lipid extracts were transferred to silica gel plates (Kodak, Rochester, N.Y.) and developed in a chloroform-methanolwater (65:25:4) solvent system. Pure dipalmitoyl phosphatidylcholine was used as the chromatographic standard. The developed plates were stained with bromothymol blue, blotted, and vacuum dried for 5 min at 90° C. Chromatogram spots corresponding to the migration of saturated phosphatidylcholine were scraped from the plates and counted by liquid scintillation spectrometry. The amounts of [methyl^3H]choline chloride incorporated into saturated phosphatidylcholine were expressed as disintegrations per minute per milligram of protein.
# ATII cells [4] = assay: Phospholipid synthesis ([3H]choline incorporation) by ATII cells treated in vitro; format: cell-based, rat
# Experimental: Isolated ATII cells were cultured in DMEM+10% FBS in 6- and 96-well plates, 100-mm dishes, and T-75 flasks, as needed, and maintained at 37° C. in a humidified incubator containing 5% CO2-95% air. At 80-90% confluence, cells were processed for cell proliferation, differentiation, and metabolic studies (see below).
# as §1
# ATII cells [5] = assay: Western analysis of CCT-α and SP-B in ATII cells after in utero nicotine; format: in vivo, Sprague-Dawley rat
# Experimental: Pathogen-free timed (embryonic day 0=day of mating) pregnant Sprague-Dawley rats (200-250 g body wt) were obtained from Charles River (Hollister, Calif.) at embryonic day 3 and allowed to acclimatize until embryonic day 6. […] The fetuses were extracted by cesarean section, and the lungs were snap frozen for later analysis or processed for ATII cell or fibroblast culture. […] Louis, Mo.; 0.25 mg/kg). All studies were approved by the Los Angeles Biomedical Research Institute Institutional Review Board and were conducted in accordance with the National Institutes of Health Guide for the Care and Use of Laboratory Animals. Protein extraction and Western blot analysis for SP-B and choline phosphate cytidylyltransferase-α (CCT-α) were performed using standard methods. […] Chemicon) overnight at 4° C. The antibody for CCT-α (1:2,000 dilution) was a kind gift from Dr. […] (University of Iowa, Iowa City, Iowa). […] The density of the SP-B and CCT-α bands was quantified using a scanning densitometer (Eagle Eye, Stratagene).
# [6] = system: fetal alveolar type II (ATII) cells; assay: In vivo ATII cell proliferation assay (PCNA and SP-C double labeling) after in utero nicotine; set-up: species or system Sprague-Dawley rat
# fetal ATII cells = assay: Ex vivo ATII cell proliferation assay (tetrazolium dye) after in utero nicotine; set-up: species or system Sprague-Dawley rat
# Experimental: Pathogen-free timed (embryonic day 0=day of mating) pregnant Sprague-Dawley rats (200-250 g body wt) were obtained from Charles River (Hollister, Calif.) at embryonic day 3 and allowed to acclimatize until embryonic day 6. […] The fetuses were extracted by cesarean section, and the lungs were snap frozen for later analysis or processed for ATII cell or fibroblast culture. […] Louis, Mo.; 0.25 mg/kg). All studies were approved by the Los Angeles Biomedical Research Institute Institutional Review Board and were conducted in accordance with the National Institutes of Health Guide for the Care and Use of Laboratory Animals. ATII cells were isolated using differential adherence in monolayer culture, as described previously (Battenburg et al. (1990) Biochim. Biophys. Acta 960: 441-456). Briefly, three to five […] used per preparation. The fetuses were delivered via cesarean section, and fetal lungs were placed in Hanks' balanced salt solution without calcium and magnesium. […] A Teflon stirring bar was used to further dissociate the lungs by mechanical disruption of the tissue during incubation in a 37° C. water bath. After the tissue was dispersed into a unicellular suspension, the cells were pelleted at 500 g for 10 min at room temperature in a 50-ml polystyrene centrifuge tube. […] The cell suspension was then added to 75-cm^2 (T-75) culture flasks for 30-60 min to allow for differential adherence of lung fibroblasts. The unattached cells were then transferred to another T-75 culture flask for an additional 60 min. After this second culture period, the medium and nonadherent cells were removed from the flask and diluted with 1 vol of culture medium. This diluted suspension was cultured overnight in a T-75 culture flask at 37° C. in a CO2 incubator to allow the ATII cells to adhere. […] According to the manufacturer's protocol, cell proliferation was determined by the tetrazolium dye assay, which is based on the conversion of a tetrazolium salt to a red formazan product by living cells (Cell Proliferation Assay, Promega).
# fetal rat lung explants = assay: In vitro ATII cell proliferation in lung explants (PCNA and SP-C labeling); format: cell-based
# Experimental: Explants derived from three to five litters of rats were used for each experiment during the course of the studies. Lungs were harvested from fetal rats under sterile conditions. The lung tissue was chopped into −1-mm cubes and incubated in 0.5 ml of Waymouth's MB-252/1 medium containing penicillin (100 U/ml)-streptomycin (100 U/ml) and Fungizone (2.5 μg/ml) in six-well plates while rocking on an oscillating platform (3 cycles/min) in 5% CO2-95% air at 37° C. The explants were allowed to attach for 1-2 h.
# Cultured ATII cells or explants were treated with nicotine under various experimental conditions (see below), and cell proliferation was determined by Cell Proliferation Assay (Promega) or dual PCNA and SP-C labeling, respectively (see above).
# WI38 cells [7] = assay: Reversal of nicotine-induced LIF-to-MYF transdifferentiation in WI38 cells, Western analysis; settings: GW9662 1×10^−5 M pretreatment; nicotine 1×10^−9 M 7 days
# Experimental: The human embryonic cell line WI38 was obtained from the American Type Culture Collection (Rockville, Md.). Cells were grown in minimum essential medium (MEM) +10% fetal bovine serum at 37° C. in six-well plates, two well slides, and 60-mm and 100-mm culture dishes, as needed. […] Subsequently, the cells were treated with rosiglitazone (RGZ) (1×10^−5 M) (a PPARγ agonist), PTHrP (5×10^−7 M), or DBcAMP (1×10^−5 M) for 7 days, and the expression of PTHrP receptor, PPARγ, ADRP, calponin, and cSMA was determined by Western analysis and immunohistochemistry. Simultaneously, fibroblast function was characterized by measuring their capacity to take up triglycerides. Some experiments were performed in the presence of a specific PPARγ antagonist, GW9662. Medium containing fresh chemicals was added daily, and at the end of the experimental period the cells were processed as needed.
# For Western blotting, cells were lysed using an extraction buffer [10 mM tris (hydroxymethyl) aminomethane (Tris, pH 7.5), 0.25 M sucrose, 1 mM EDTA, 5 mM benzamidine, 2 mM phenylmethylsulfonyl fluoride, and 10 (j.tg/ml each of pepstatin A, aprotinin, and leupeptin], and centrifuged at 140 g for 10 min (4° C.). Equal amounts of the protein (25 μg) from the supernatant were dissolved in electrophoresis sample buffer and were subjected to sodium dodecyl sulfate-polyacrylamide (4%-12% gradient) gel electrophoresis (SDS-PAGE) followed by electrophoretic transfer to a nitrocellulose memane. The nonspecific binding of antibody was blocked by washing with Tris-buffered saline (TBS) containing 0.1% Tween 20 (TBST) and 5% milk for 1 h. The blot was then subjected to two brief washes with TBST plus 0.5% Tween 20, incubated in TBST plus 0.1% Tween 20 and the specific primary antibodies (PPARγ 1:2000, Alexis Biochemicals, San Diego, Calif.; cSMA 1:50,000, Sigma, St. Louis, Mo.: ADRP 1:3000) overnight at 4° C. Blots were then washed in TBST plus 0.1% Tween 20 and then incubated for 1 h in secondary antibody, washed, and developed with a chemiluminescent substrate [enhanced chemiluminescence (ECL); Amersham, Arlington Heights, Ill.] following the manufacturer's protocol. The densities of the specific protein bands were quantified using a scanning densitometer (Eagle Eye II still video system, Stratagene, La Jolla, Calif.).
# ATII cells [8] = settings: rat, in vivo
compound,measurement,setting,value
COc1cc2c3cc1Oc1cc(ccc1O)C[C@@H]1c4c(cc(OC)c(O)c4Oc4ccc(cc4)C[C@@H]3N(C)CC2)CC[N+]1(C)C [D-tubocurarine],prevention of nicotine-induced decrease in triolein uptake,WI38 cells [1],completely prevented
same,prevention of nicotine-induced decrease in PTHrP binding to its receptor,PTHrP receptor,prevented
O=C(Nc1ccccc1)c1cc([N+](=O)[O-])ccc1Cl [GW9662],effect on nicotine-induced increase (CCT-α experiment),"ATII cells [2]; PGJ2 alone or in combination with GW-9662, in vitro",no effect
same,effect on nicotine-induced increase in SP-B expression,ATII cells [2]; in vitro,unaffected
same,effect on nicotine-induced increase in phospholipid synthesis,"ATII cells [3]; concomitant PGJ2 alone or in combination with GW-9662, in utero",no effect
same,effect on nicotine-induced increase in phospholipid synthesis,"ATII cells [4]; concomitant PGJ2 alone or in combination with GW-9662, in vitro",no effect
same,effect on nicotine-induced increase (CCT-α experiment),"ATII cells [5]; PGJ2 alone or in combination with GW-9662, in vivo",no effect
same,effect on nicotine-induced increase in SP-B protein expression,"ATII cells [5]; concomitant treatment, in utero",no effect
same,block of the PGJ2 effect on nicotine-induced increase in ATII cell proliferation,"[6]; GW-9662 0.25 mg/kg pretreatment, nicotine + PGJ2",almost completely blocked
same,block of the PGJ2 effect on nicotine-induced increase in ATII cell proliferation,[6]; in utero nicotine + PGJ2,70%
same,block of the PGJ2 effect,fetal ATII cells; nicotine + PGJ2,blocked
same,block of the PGJ2 effect in lung explants,fetal rat lung explants; nicotine 24 h + PGJ2,blocked
same,"block of molecular protection by PTHrP, DBcAMP and RGZ against nicotine-induced LIF-to-MYF transdifferentiation (PPARγ, calponin)",WI38 cells [7],completely blocked
"CCCCC[C@H](O)/C=C/[C@H]1C(=O)C=C[C@@H]1C/C=C\CCCC(=O)O [PGJ2, prostaglandin J2]",effect on nicotine-induced increase (CCT-α experiment),ATII cells [2],no effect
same,effect on nicotine-induced increase in SP-B expression,ATII cells [2],unaffected
same,effect on nicotine-induced increase in phospholipid synthesis,"ATII cells [3]; rat, in vivo",no effect
same,effect on nicotine-induced increase in phospholipid synthesis,ATII cells [4],no effect
same,effect on nicotine-induced increase (CCT-α experiment),"ATII cells [5]; rat, in vivo",no effect
same,effect on nicotine-induced increase in SP-B protein expression,"ATII cells [5]; rat, in vivo",no effect
same,block of nicotine-induced alterations in ribose synthesis,ATII cells [8],completely blocked
same,prevention of nicotine-induced changes in de novo palmitate synthesis and acetyl-CoA labeling,ATII cells [8],completely prevented
same,block of nicotine-induced increase in ATII cell proliferation,"[6]; rat, in vivo",completely blocked
same,block of nicotine-induced increase in ATII proliferation,"fetal ATII cells; rat, in vivo",almost completely blocked
same,block of nicotine-induced increase in ATII cell proliferation in lung explants,fetal rat lung explants,blocked
CNC1(C)C2CCC(C2)C1(C)C (centres unmarked) [mecamylamine],prevention of nicotine-induced decrease in triolein uptake,WI38 cells [1]; nACh receptor antagonist 1×10^−9 or 1×10^−6 M,not
same,prevention of nicotine-induced decrease in PTHrP binding to its receptor,"PTHrP receptor; pretreatment with nACh receptor antagonist, nicotine 1×10^−6 M",not
PTHrP-(7-34) amide,binding of radioactive ligand [125I]-Tyr34-PTHrP-(1-34),PTHrP receptor; 1 μM,inhibited
α-bungarotoxin,prevention of nicotine-induced decrease in triolein uptake,WI38 cells [1],completely prevented
same,prevention of nicotine-induced decrease in PTHrP binding to its receptor,PTHrP receptor,prevented
